Laboratory results reported in PMC3528340 (Journal of the American Chemical Society, 2012).

How the values were obtained:
[1] = molecular target: T1, EcLTA (E. coli L-Thr aldolase, EC 4.1.24) (Escherichia coli, UniProt P75823); assay: aldehyde dehydrogenase-coupled retro-aldol assay, A340; type: biochemical; conditions: L-Thr only, no aldehyde acceptor
T1 sequence (P75823 1-333): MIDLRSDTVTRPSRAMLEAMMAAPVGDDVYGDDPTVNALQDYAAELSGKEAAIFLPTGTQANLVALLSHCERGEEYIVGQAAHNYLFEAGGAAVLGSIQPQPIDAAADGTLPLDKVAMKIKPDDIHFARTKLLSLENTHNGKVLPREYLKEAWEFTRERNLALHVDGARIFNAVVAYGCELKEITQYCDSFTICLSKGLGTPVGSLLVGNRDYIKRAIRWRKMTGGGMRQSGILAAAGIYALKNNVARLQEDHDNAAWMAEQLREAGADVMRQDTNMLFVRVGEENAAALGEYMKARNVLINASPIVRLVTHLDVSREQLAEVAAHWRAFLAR

EcGlyA (E. coli SHMT) = molecular target: T2, EcGlyA (E. coli SHMT) (Escherichia coli, UniProt P0A825); assay: as above; type: biochemical; conditions: L-Thr only, no aldehyde acceptor
T2 sequence (P0A825 1-417): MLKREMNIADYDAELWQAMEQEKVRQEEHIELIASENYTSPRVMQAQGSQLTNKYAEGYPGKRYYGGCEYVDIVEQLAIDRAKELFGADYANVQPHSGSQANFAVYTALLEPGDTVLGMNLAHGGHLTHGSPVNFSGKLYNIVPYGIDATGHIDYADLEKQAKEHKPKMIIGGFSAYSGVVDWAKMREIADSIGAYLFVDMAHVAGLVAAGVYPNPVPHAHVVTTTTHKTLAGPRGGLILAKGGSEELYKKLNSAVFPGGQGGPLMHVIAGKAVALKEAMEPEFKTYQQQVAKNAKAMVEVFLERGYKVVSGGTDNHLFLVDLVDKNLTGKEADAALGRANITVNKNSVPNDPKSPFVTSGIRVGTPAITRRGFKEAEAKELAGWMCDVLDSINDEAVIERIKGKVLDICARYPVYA

Q: What does the source list for `C[C@@H](O)[C@H](N)C(=O)O` [L-Thr]?
A: specific activity [1]: EcLTA, and EcGlyA were shown to catalyze a retro-aldol-type reaction in the presence of only L-Thr; specific activity (EcGlyA (E. coli SHMT)): EcLTA, and EcGlyA were shown to catalyze a retro-aldol-type reaction in the presence of only L-Thr
